A word on the IC50: it is the concentration needed to halve the response being measured.

We go through 15 molecules from ChEMBL document CHEMBL5252647 (Bioorg Med Chem, 2023).

The subject of test [1] is MDA-MB-231. As to the kind of experiment: Antiproliferative activity against human MDA-MB-231 cells assessed as inhibition of cell growth incubated for 72 hrs by MTT assay. Conditions: MDA-MB-231, 72 h. Format: functional, cell-based. In general terms: Formazan colour is commonly taken as a measure of viable cells.
The next test relates to A549. As to the kind of experiment: Antiproliferative activity against human A549 cells assessed as inhibition of cell growth incubated for 72 hrs by MTT assay. Format: functional, cell-based. To be noted: A549, 72 h.
The test system of test [2] is MCF7. As to the kind of experiment: Antiproliferative activity against human MCF7 cells assessed as inhibition of cell growth incubated for 72 hrs by MTT assay. It is filed as functional, cell-based. Conditions: MCF7, 72 h.
In a further test the test system is HepG2. As to the kind of experiment: Antiproliferative activity against human HepG2 cells assessed as inhibition of cell growth incubated for 72 hrs by MTT assay. Conditions: HepG2, 72 h. Format: functional, cell-based.
For test [3], the target named is Cyclin-dependent kinase 4 (Homo sapiens, UniProt P11802). Kind of test: Covalent inhibition of CDK4 (unknown origin) using histone H1 as substrate incubated for 10 mins in presence of [gamma-32P]ATP by radioactivity based kinase assay.
Test [4] has as its target Cyclin-dependent kinase 6 (Homo sapiens, UniProt Q00534). As to the kind of experiment: Covalent inhibition of CDK6 (unknown origin) using histone H1 as substrate incubated for 10 mins in presence of [gamma-32P]ATP by radioactivity based kinase assay.
Test [5] has as its target Cyclin-dependent kinase 9 (Homo sapiens, UniProt P50750). Kind of test: Covalent inhibition of CDK9 (unknown origin) using histone H1 as substrate incubated for 10 mins in presence of [gamma-32P]ATP by radioactivity based kinase assay.
Test [6] has as its target Cyclin-dependent kinase 12 (Homo sapiens, UniProt Q9NYV4). As to the kind of experiment: Covalent inhibition of CDK12 (unknown origin) using histone H1 as substrate incubated for 10 mins in presence of [gamma-32P]ATP by radioactivity based kinase assay.
The test system of test [7] is MDA-MB-231. As to the kind of experiment: Induction of apoptosis in human MDA-MB-231 cells assessed as viable cells at 10 uM incubated for 24 hrs by annexin V-FITC/propidium iodide staining based flow cytometry analysis (reference value: 96.5%). It is filed as functional. To be noted: read-out: Activity.
In test [8] the test system is MDA-MB-231. As to the kind of experiment: Induction of apoptosis in human MDA-MB-231 cells assessed as early apoptotic cells at 10 uM incubated for 24 hrs by annexin V-FITC/propidium iodide staining based flow cytometry analysis (reference value: 3.39%). It is filed as functional. Background: A flow cytometer gives signals particle by particle.
The test system of test [9] is MDA-MB-231. Kind of test: Induction of apoptosis in human MDA-MB-231 cells assessed as late apoptotic cells at 10 uM incubated for 24 hrs by annexin V-FITC/propidium iodide staining based flow cytometry analysis (reference value: 0.113%). Format: functional.
For test [10], the system named is MDA-MB-231. Kind of test: Induction of apoptosis in human MDA-MB-231 cells assessed as necrotic cells at 10 uM incubated for 24 hrs by annexin V-FITC/propidium iodide staining based flow cytometry analysis (reference value: 0.034%). It is filed as functional.
For test [11], the system named is MDA-MB-231. Kind of test: Cell cycle arrest in human MDA-MB-231 cells assessed as accumulation of cells at G0/G1 phase at 10 uM incubated for 24 hrs by propidium iodide staining based assay (reference value: 54.43%). Format: functional.
Test [12] relates to MDA-MB-231. As to the kind of experiment: Cell cycle arrest in human MDA-MB-231 cells assessed as accumulation of cells at G2/M phase at 10 uM incubated for 24 hrs by propidium iodide staining based assay (reference value: 20.49%). It is filed as functional.
In test [13] the test system is MDA-MB-231. Kind of test: Cell cycle arrest in human MDA-MB-231 cells assessed as accumulation of cells at S phase at 10 uM incubated for 24 hrs by propidium iodide staining based assay (reference value: 25.09%). It is filed as functional.
Test [14] has as its system MDA-MB-231. As to the kind of experiment: Induction of apoptosis in human MDA-MB-231 cells assessed as apoptosis rate at 10 uM incubated for 24 hrs by annexin V-FITC/propidium iodide staining based flow cytometry analysis. It is filed as functional.
The test system of test [15] is MCF7. Kind of test: Antiproliferative activity against palbociclib-resistant human MCF7 cells assessed as inhibition of cell growth incubated for 72 hrs by MTT assay. Format: functional, cell-based. To be noted: MCF7, 72 h.
The target in test [16] is T1, Cyclin-dependent kinase 4/6 (Homo sapiens) (UniProt P11802+Q00534). Kind of test: Inhibition of CDK4/CDK6 signaling pathway in human MDA-MB-231 cells assessed as reduction of RB phosphorylation at Ser780 residue level at 1 to 8 uM incubated for 24 hrs by western blot assay. It is filed as cell-based. Conditions: dose 1-8 µM. (In general: In western blotting, separated proteins are transferred to a membrane and probed.)

The target of test [17] is T1, Cyclin-dependent kinase 4/6 (Homo sapiens). Kind of test: Inhibition of CDK4/CDK6 signaling pathway in human MDA-MB-231 cells assessed as inhibition of CDK6 expression level at 1 to 8 uM incubated for 24 hrs by western blot assay. Format: cell-based. To be noted: dose 1-8 µM.
The target is the same in test [18]. Kind of test: Inhibition of CDK4/CDK6 signaling pathway in human MDA-MB-231 cells assessed as inhibition of CDK4 expression level at 1 to 8 uM incubated for 24 hrs by western blot assay. Conditions: dose 1-8 µM. It is filed as cell-based.
A short description of test [19]: Resistance factor, ratio of IC50 for palbociclib-resistant human MCF7 cells to IC50 for human MCF7 cells. It is filed as functional.

Chain of Cyclin-dependent kinase 9 (P50750 whole entry): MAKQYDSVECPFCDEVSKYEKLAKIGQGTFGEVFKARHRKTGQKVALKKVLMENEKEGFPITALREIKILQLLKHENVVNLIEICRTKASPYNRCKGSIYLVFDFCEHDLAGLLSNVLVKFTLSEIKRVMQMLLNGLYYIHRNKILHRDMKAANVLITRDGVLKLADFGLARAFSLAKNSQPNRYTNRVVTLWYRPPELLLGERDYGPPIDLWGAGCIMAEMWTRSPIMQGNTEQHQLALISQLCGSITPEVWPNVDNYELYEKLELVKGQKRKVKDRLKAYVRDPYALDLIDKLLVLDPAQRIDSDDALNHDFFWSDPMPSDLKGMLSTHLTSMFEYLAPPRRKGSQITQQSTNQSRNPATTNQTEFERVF
Chain of Cyclin-dependent kinase 6 (Q00534 whole entry): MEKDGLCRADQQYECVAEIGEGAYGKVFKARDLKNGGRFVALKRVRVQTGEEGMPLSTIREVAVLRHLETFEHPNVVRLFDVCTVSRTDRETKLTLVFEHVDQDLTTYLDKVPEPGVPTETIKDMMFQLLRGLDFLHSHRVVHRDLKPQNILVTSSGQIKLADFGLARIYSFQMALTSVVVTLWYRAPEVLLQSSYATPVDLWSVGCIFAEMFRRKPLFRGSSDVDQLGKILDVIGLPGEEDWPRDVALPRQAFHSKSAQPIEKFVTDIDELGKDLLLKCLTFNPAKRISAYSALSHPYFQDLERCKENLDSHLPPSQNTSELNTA
T1 sequence (P11802 whole entry, looked up): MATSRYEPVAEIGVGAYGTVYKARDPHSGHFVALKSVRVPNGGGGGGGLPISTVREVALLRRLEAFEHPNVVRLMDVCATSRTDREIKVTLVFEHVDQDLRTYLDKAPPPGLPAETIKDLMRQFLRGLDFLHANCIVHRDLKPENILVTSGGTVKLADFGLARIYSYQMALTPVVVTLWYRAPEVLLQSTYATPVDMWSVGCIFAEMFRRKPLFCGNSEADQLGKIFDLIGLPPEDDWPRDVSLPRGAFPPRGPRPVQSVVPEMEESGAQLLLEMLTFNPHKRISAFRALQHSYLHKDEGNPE
T1 sequence (Q00534 whole entry, looked up): as the sequence (Q00534 whole entry) above
Chain of Cyclin-dependent kinase 4 (P11802 whole entry): as the sequence (P11802 whole entry, looked up) above
Chain of Cyclin-dependent kinase 12 (Q9NYV4 whole entry): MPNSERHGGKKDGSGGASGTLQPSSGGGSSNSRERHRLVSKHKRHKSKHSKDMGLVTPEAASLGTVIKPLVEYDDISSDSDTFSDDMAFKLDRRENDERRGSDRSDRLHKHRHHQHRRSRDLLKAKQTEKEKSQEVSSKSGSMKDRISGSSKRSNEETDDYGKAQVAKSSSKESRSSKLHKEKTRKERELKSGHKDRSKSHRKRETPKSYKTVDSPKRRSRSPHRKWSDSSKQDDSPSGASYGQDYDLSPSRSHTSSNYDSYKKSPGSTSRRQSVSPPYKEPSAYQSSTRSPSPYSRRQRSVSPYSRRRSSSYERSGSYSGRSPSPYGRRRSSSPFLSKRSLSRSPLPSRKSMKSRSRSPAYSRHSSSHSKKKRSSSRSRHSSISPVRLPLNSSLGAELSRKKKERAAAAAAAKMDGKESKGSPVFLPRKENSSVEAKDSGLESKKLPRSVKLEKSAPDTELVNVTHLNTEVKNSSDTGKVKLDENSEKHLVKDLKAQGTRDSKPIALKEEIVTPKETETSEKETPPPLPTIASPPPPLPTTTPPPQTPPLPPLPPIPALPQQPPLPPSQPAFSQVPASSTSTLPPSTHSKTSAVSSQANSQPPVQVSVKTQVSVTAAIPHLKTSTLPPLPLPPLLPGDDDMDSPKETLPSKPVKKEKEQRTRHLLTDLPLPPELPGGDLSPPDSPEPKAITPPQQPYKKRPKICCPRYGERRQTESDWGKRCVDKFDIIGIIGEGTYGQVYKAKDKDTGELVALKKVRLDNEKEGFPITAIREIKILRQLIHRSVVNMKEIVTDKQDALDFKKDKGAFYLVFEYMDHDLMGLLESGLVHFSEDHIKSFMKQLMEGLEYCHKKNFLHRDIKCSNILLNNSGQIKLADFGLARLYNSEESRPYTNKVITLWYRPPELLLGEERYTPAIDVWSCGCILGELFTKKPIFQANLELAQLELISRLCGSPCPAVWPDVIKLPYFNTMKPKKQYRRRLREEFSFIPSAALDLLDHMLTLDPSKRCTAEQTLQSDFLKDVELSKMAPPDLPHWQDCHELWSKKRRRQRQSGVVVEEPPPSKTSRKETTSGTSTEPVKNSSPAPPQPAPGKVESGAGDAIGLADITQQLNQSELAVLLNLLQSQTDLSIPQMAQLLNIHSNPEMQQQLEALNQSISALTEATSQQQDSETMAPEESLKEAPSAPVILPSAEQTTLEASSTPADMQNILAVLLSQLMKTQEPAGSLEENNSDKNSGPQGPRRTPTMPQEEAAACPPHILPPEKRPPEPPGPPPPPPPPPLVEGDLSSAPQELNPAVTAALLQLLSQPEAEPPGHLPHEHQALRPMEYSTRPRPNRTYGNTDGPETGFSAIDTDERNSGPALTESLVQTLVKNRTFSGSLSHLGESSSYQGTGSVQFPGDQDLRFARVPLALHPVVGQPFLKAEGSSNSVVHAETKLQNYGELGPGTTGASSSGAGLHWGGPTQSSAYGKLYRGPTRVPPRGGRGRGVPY

As for `CC(=O)c1c(C)c2cnc(Nc3ccc(N4CCN(C(=O)/C(C#N)=C/c5ccccc5)CC4)cn3)nc2n(C2CCCC2)c1=O`, the concentration for half-maximal inhibition (IC50) in the test with MDA-MB-231 [1] is 5.68 µM; in the test on A549 it was 9.57 µM; in the test on MCF7 [2], 0.42 µM; in the test on HepG2, 9.11 µM; in test [3] it was 0.025 µM; in [4], 0.019 µM. For the same molecule, the IC50 in test [5] and in test [6] was more than 1 µM throughout. Besides, in the test with MDA-MB-231 [7], the viability at 10 µM came to 36.5%. The Activity with MDA-MB-231 [8] stood at 52.1%; in the test on MDA-MB-231 [9] it was 11%; in the test with MDA-MB-231 [10], 0.425%; in the test with MDA-MB-231 [11] it was 63.83%; in the test on MDA-MB-231 [12], 11.59%; with MDA-MB-231 [13], 24.58%. Further, in the test on MDA-MB-231 [14], the Activity is reported as 63.1%.
With `CC(=O)c1c(C)c2cnc(Nc3ccc(N4CCNCC4)cn3)nc2n(C2CCCC2)c1=O` [PALBOCICLIB], the IC50 in the test with MDA-MB-231 [1] came to 5.62 µM; with A549 it was 8.07 µM; in the test with MCF7 [2], 0.78 µM; with HepG2 it was 9.92 µM; in the test with MCF7 [15] it was 5.81 µM. Moreover, the viability at 10 µM in the test with MDA-MB-231 [7] came to 24.8%. For the same molecule, the Activity was determined as 47.6% in the test with MDA-MB-231 [8]; 26.1% in the test with MDA-MB-231 [9]; 1.47% with MDA-MB-231 [10]; 71.23% with MDA-MB-231 [11]; 11.78% in the test on MDA-MB-231 [12]; 16.99% with MDA-MB-231 [13]. For the same molecule, in the test with MDA-MB-231 [14], the Activity worked out at 73.7%.
With `COc1ccc(/C=C/C(=O)N2CCN(c3ccc(Nc4ncc5c(C)c(C(C)=O)c(=O)n(C6CCCC6)c5n4)nc3)CC2)cc1OC`, the IC50 was more than 20 µM with MDA-MB-231 [1], 16.1 µM in the test with A549, 1.85 µM in the test with MCF7 [2] and more than 20 µM in the test on HepG2.
In the case of `COC(=O)/C=C/CN1CCN(c2ccc(Nc3ncc4c(C)c(C(C)=O)c(=O)n(C5CCCC5)c4n3)nc2)CC1`, the IC50 was more than 20 µM in the test with MDA-MB-231 [1], 16.5 µM in the test on A549, more than 20 µM with MCF7 [2] and more than 20 µM in the test on HepG2.
As for `CC(=O)c1c(C)c2cnc(Nc3ccc(N4CCN(C(=O)/C=C/C5CC5)CC4)cn3)nc2n(C2CCCC2)c1=O`, the IC50 in the test on MDA-MB-231 [1] is 7.75 µM; in the test on A549, 17.6 µM; with MCF7 [2], 1.32 µM; with HepG2, more than 20 µM.
The matching figures for `COc1ccc(/C=C/C(=O)NCC(=O)N2CCN(c3ccc(Nc4ncc5c(C)c(C(C)=O)c(=O)n(C6CCCC6)c5n4)nc3)CC2)cc1OC`: 8.96 µM, 14.4 µM, 2.33 µM and 11.7 µM.
Regarding `C=CC(=O)N1CCN(c2ccc(Nc3ncc4c(C)c(C(C)=O)c(=O)n(C5CCCC5)c4n3)nc2)CC1`, the IC50 with MDA-MB-231 [1] is 5.26 µM; with A549, 9.75 µM; with MCF7 [2], 0.62 µM; with HepG2, 9.55 µM; in test [3], 0.023 µM; in test [4], 0.015 µM. For the same molecule, the IC50 in [5] was more than 1 µM; in test [6] it was 0.89 µM. Besides, in the test on MDA-MB-231 [7], the viability at 10 µM was 43.8%. Besides, the Activity with MDA-MB-231 [8] came to 40.3%; in the test on MDA-MB-231 [9], 15.2%; in the test on MDA-MB-231 [10], 0.689%; with MDA-MB-231 [11], 60.21%; with MDA-MB-231 [12], 13.78%; with MDA-MB-231 [13], 26.01%. The Activity with MDA-MB-231 [14] turned out to be 55.5%.
For `COc1ccc(/C=C/C(=O)NCCCC(=O)N2CCN(c3ccc(Nc4ncc5c(C)c(C(C)=O)c(=O)n(C6CCCC6)c5n4)nc3)CC2)cc1OC`, the IC50 is more than 20 µM in the test with MDA-MB-231 [1], 13 µM in the test on A549, more than 20 µM in the test with MCF7 [2] and 13.7 µM with HepG2.
On to `CC(=O)c1c(C)c2cnc(Nc3ccc(N4CCN(C(=O)/C=C/C(F)(F)F)CC4)cn3)nc2n(C2CCCC2)c1=O`, for which the inhibition entry in [16], in [17] and in [18] was “Dose-Dependent Effect” in each case. In addition, the IC50 in the test on MDA-MB-231 [1] came out at 0.51 µM; in the test with A549 it was 1.55 µM; with MCF7 [2], 0.48 µM; with HepG2, 5.1 µM; with MCF7 [15], 0.53 µM; in test [3] it was 0.018 µM. The IC50 was 0.013 µM in [4], more than 1 µM in test [5] and more than 1 µM in test [6]. The “Ratio IC50” value in test [19] is listed as 1.1. Besides, the viability at 10 µM in the test on MDA-MB-231 [7] was determined as 20.6%. The Activity in the test with MDA-MB-231 [8] stood at 62.3%; with MDA-MB-231 [9], 16.7%; with MDA-MB-231 [10] it was 0.445%; with MDA-MB-231 [11] it was 68.69%; in the test on MDA-MB-231 [12], 10.14%; in the test with MDA-MB-231 [13], 21.16%. Also, the Activity in the test on MDA-MB-231 [14] was 79%.
In the case of `COc1ccc(/C=C/C(=O)NCCCC(=O)N2CCN(c3ccc(Nc4ncc5c(C)c(C(C)=O)c(=O)n(C6CCCC6)c5n4)nc3)CC2)cc1O`, the IC50 was 8.21 µM with MDA-MB-231 [1], more than 20 µM with A549, 2.69 µM with MCF7 [2] and more than 20 µM in the test with HepG2.
As to `COc1cc(/C=C/C(=O)N2CCN(c3ccc(Nc4ncc5c(C)c(C(C)=O)c(=O)n(C6CCCC6)c5n4)nc3)CC2)ccc1O`, the IC50 in the test with MDA-MB-231 [1] was 8.88 µM; with A549 it was more than 20 µM; with MCF7 [2], more than 20 µM; in the test with HepG2, more than 20 µM.
For `CC(=O)c1c(C)c2cnc(Nc3ccc(N4CCN(C(=O)/C=C/c5ccccc5)CC4)cn3)nc2n(C2CCCC2)c1=O`, the IC50 with MDA-MB-231 [1] was 6.73 µM; with A549 it was 14.4 µM; in the test on MCF7 [2] it was more than 20 µM; in the test with HepG2 it was 11.9 µM.
Consider `COc1ccc(/C=C/C(=O)NCCC(=O)N2CCN(c3ccc(Nc4ncc5c(C)c(C(C)=O)c(=O)n(C6CCCC6)c5n4)nc3)CC2)cc1OC`, for which the IC50 in the test on MDA-MB-231 [1] was 7.2 µM; in the test on A549 it was 11.8 µM; in the test with MCF7 [2] it was more than 20 µM; in the test on HepG2 it was 10.1 µM.
The matching figures for `C/C=C/C(=O)N1CCN(c2ccc(Nc3ncc4c(C)c(C(C)=O)c(=O)n(C5CCCC5)c4n3)nc2)CC1`: 8.57 µM, 17.3 µM, 2.36 µM and more than 20 µM.
The matching figures for `COc1cc(/C=C/C(=O)NCC(=O)N2CCN(c3ccc(Nc4ncc5c(C)c(C(C)=O)c(=O)n(C6CCCC6)c5n4)nc3)CC2)ccc1O`: 6.29 µM, 12.1 µM, more than 20 µM and 10.6 µM.
